Assay results: patent publication US10765654B2, “Methods and compounds for treating cancer” (University of Vermont and State Agricultural College, priority 2011, dated 2020)

Key:
[1] = tested on: OG33 oligodendroglioma stem cells; assay: Growth dynamics, unbiased trypan blue exclusion based cytometry; assay type: cell-based, human; details: 0.25% GTA, 5 days of treatment
Method: (§1) Growth dynamics were assessed using unbiased trypan blue exclusion based cytometry. Cells were plated (at 10,000 cells per well of a 24-well plate) directly in the absence or presence of 0.25% GTA. After 1, 3, and 5 days of treatment, cells were typsinized, collected via centrifugation, and counted according to the manufacturer's instructions (Countess Automated Cell Counter; Invitrogen Life Technologies; Carlsbad, Calif.).

[2] = tested on: OG35 oligodendroglioma stem cells; assay: as above; assay type: cell-based, human; details: 0.25% GTA, 5 days of treatment
Method: as §1

GBM12 GSCs = assay: Cell cycle profile of GBM-derived GSC spheres (flow cytometry); assay type: cell-based, human; details: 0.25% GTA in SCM for 24 hours; all GSCs except GBM8
Method: (§2) Cell cycle profiles were visualized by propidium iodide (PI) staining as previously described (Perez-Martinez & Jaworski (2005) J Neurosci 25:4917-29). OG35, OG33 and mouse neural stem cells were grown in stem cell medium (SCM; DMEM/F12, B27, 20 ng/ml ea bFGF & EGF) while the oligodendrocyte progenitor cell line, Oli-neu (Jung et al. (1995) Eur J Neurosci 7:1245-65) was grown in Sato's medium (DMEM supplemented with 100 μg/ml apotransferrin, 5 μg/ml insulin, 60 nM triiodothyronine, 30 nM sodium selenite, 100 μM putrescine, 1% horse serum, and 25 μg/ml G418). […] after 0.25% (v/v) GTA treatment, cells were trypsinized, recovered by centrifugation, re-suspended (10^6 cells/ml) in a low-salt PI solution ([…] polyethylene glycol PEG 8000, […], 180 U/ml RNase A, 0.1% Triton X-100, and 4 mM sodium citrate), and incubated at 37° C. for 20 minutes. After addition of an equal volume of high-salt PI solution ([…] polyethylene glycol PEG 8000, […], 180 U/ml RNase A, 0.1% Triton X-100, and 400 mM NaCl) and incubation at 4° C. for 1 hour, cell cycle profiles were recorded by flow cytometry (BD LSR 11 Flow Cytometer, BD Biosciences; Franklin Lakes, N.J.).
(§3) Flow cytometry was performed 24 hours after GTA treatment as described in prior examples herein.

GBM8 GSCs [3] = assay: as above; assay type: cell-based, human; details: 0.25% GTA in SCM for 24 hrs
Method: as §2, §3

GBM8 GSCs [4] = assay: Growth dynamics, unbiased trypan blue exclusion based cytometry; assay type: cell-based, human; details: GTA; GBM8 cells grown in DM
Method: as §1
Growth dynamics was determined as described in prior examples herein.

[5] = tested on: murine neural stem cells (NSCs); assay: Cell cycle profile by propidium iodide staining and flow cytometry; assay type: cell-based; details: 0.25% GTA in SCM for 24 hours
Method: as §2

[6] = acetate supplementation in children with Canavan Disease; cited from earlier work
OG35 cells = assay: Immunocytochemistry after 5 days in differentiation medium with or without GTA; assay type: cell-based, human; details: 0.25% GTA, 5 days in DM
Method: (§4) Immunocytochemistry was performed as described (Perez-Martinez & Jaworski (2005) J Neurosci 25:4917-29). Briefly, OG33 and OG35 cells were plated into differentiaion medium (DMEM, 10% FBS) in the absence or presence of 0.25% GAT and fixed with 2% paraformaldehyde after 5 days. Antibodies: rabbit anti-human ASPA (1500×; GTX13389; GeneTex, Irvine, Calif.), Rabbit anti-mouse ASPA (2,000× for western blot) (Madhavarao et al., 2004 Comp Neurol 472:318-29), rabbit anti-mouse AceCS1 (15,000× western blot; 1,500× immunocytochemistry) (Ariyannur et al. 2010 J Comp Neurol 518:2952-77), rabbit anti-mouse 2′,3′-cyclic nucleotide 3′-phosphodiesterase (CNPase; 500×sc-30158; Santa Cruz Biotechnology, Santa Cruz, Calif.). Cy3- (500×) conjugated secondary antibodies were obtained from Jackson ImmunoResearch (West Grove, Pa.). Immunocytochemistry for Histone 3/Tubulin/poly(ADP-ribose) polymerase (PARP) was performed using the PathScan Multiplex IF kit per manufacturer's instructions (Cell Signaling Technology, Danvers, Mass.).

OG33 cells = assay: as above; assay type: cell-based, human; details: 0.25% GTA, 5 days in DM
Method: as §4

ASPA in OG33 cells = assay: Western blot of ASPA expression; assay type: cell-based, human; details: 0.25% GTA
Method: (§5) SDS-PAGE (25 μg protein from whole cell lysates) and western blotting were performed as previously described (Lluri et al. 2008 Exp Cell Res 314:11-24). Cytosol and nuclear fractions were isolated according to standard protocols. Antibodies: rabbit anti-mouse ASPA (2,000×), (Madhavarao et al. 2004 Comp Neurol 472:318-29) rabbit anti-human ASPA (5,000×; GTX1338; GeneTex, Irvine, Calif.), goat anti-human actin (1,000×, sc-1616, Santa Cruz Biotechnology, Santa Cruz, Calif.), rabbit anti-human GAPDH (5,000×, sc-25778, Santa Cruz Biotechnology, Santa Cruz, Calif.), mouse anti-human histone H1 (250×, sc-8030; Santa Cruz Biotechnology, Santa Cruz, Calif.). Species-specific HRP—(3,000×) conjugated secondary antibodies were obtained from Jackson ImmunoResearch (West Grove, Pa.). Immunocomplexes were visualized by enhanced chemiluminescence (PerkinElmer Life Sciences; Boston, Mass.) and densitometry performed using Quantity One software (Bio-Rad; Hercules, Calif.).
(§6) SDS-PAGE (25 μg protein from whole cell lysates) and western blotting were performed as previously described in Example 1.

ASPA in OG35 cells = assay: Western blot of ASPA expression; assay type: cell-based, human; details: 0.25% GTA
Method: as §5, §6

CC(=O)OCC(COC(C)=O)OC(C)=O [GTA, glyceryltriacetate]
Cell number [1]: significantly decreased cell number | Cell number [2]: significantly decreased cell number | Growth arrest (increased proportion of cells in G0/G1 and decreased proportion in S phase) (GBM12 GSCs): exerted growth arrest | Growth arrest (GBM8 GSCs [3]): did not induce growth arrest | Growth dynamics (GBM8 GSCs [4]): reduced growth dynamics | Cell cycle arrest [5]: no effect | Adverse effects [6]: without any adverse effects | Apoptosis (cleaved PARP, Asp214) (OG35 cells; OG35): no cleaved PARP | Nuclear expression of ASPA (OG35 cells; OG35): increase the nuclear expression of ASPA | Proliferation (phospho-histone H3 [Ser 10]) (OG35 cells; OG35): decreased phospho-histone H3 | GSC differentiation (expression of CNPase, a marker of mature oligodendrocytes) (OG35 cells; primarily in OG35 cells): increased expression of CNPase | Apoptosis (cleaved PARP, Asp214) (OG33 cells): no cleaved PARP | Proliferation (phospho-histone H3 [Ser 10]) (OG33 cells): decreased phospho-histone H3 | Expression of novel 26 kDa ASPA species (Western blot) (ASPA in OG33 cells): induced the expression of a novel 26 kDa species | Expression of the putative 36 kDa ASPA protein (Western blot) (ASPA in OG33 cells): no effect | ASPA expression (Western blot) (ASPA in OG35 cells): decreased ASPA expression
